In patent US9718858B2, “Tunable control of protein degradation in synthetic and endogenous bacterial systems” (priority 2013, dated 2017):

Legend:
[1] = test system: mf-Lon; experiment: E. coli-based GFP-pdt degradation platform, Example 2 (genomically integrated codon-optimized mf-Lon, flow cytometry); assay type: cell-based; settings: for 50 ng/ml ATc (GFP fluorescence, untagged GFP set to 100) / 0 ng/ml ATc (GFP fluorescence, untagged GFP set to 100): GFP-pdt fusion in E. coli, flow cytometry, 6 hours; for 50 ng/ml ATc (GFP fluorescence, untagged GFP set to 100): mf-Lon induced with 50 ng/ml ATc; for 0 ng/ml ATc (GFP fluorescence, untagged GFP set to 100): no mf-Lon induction
Experimental: Strains and Reagents. The E. coli K-12 derivative strain MG1655Pro (F-, λ-, Spr, lacI, tetR) published previously^2,42 was used as the wild-type strain in all cases except for the synthetic toggle experiments where the inventors used MG1655ΔlacIΔaraBAD, prepared as described in the herein. Unless otherwise noted, E. coli were grown in Luria broth (LB) at 30° C. with shaking and mf-Lon expression was induced with 50 ng/ml ATc. L. lactis strain […] was used for all L. lactis experiments and grown in M17 broth containing 0.5% glucose. Antibiotics carbenicillin (100 ug/ml), kanamycin (30 ug/ml) and erythromycin (10 ug/ml) were added to the media when appropriate. All plasmids and strain mutations were verified by sequencing, and plasmid maps will be deposited in GenBank.
E. coli-Based Degradation Platform. The mf-lon gene was codon optimized for E. coli expression, placed under control of the PLtetO promoter, and integrated into the lacZ locus along with 5′ and 3′ transcriptional terminators to block unwanted mf-Lon expression from any proximal genomic promoters. The GFP variant GFPmut3b was used for all GFP expression, and GFP-pdt and mCherry-pdt variants were expressed from the constitutive PlacIq promoter on a high-copy plasmid containing the ColE1 origin and the kanamycin resistance cassette kanR.
Flow Cytometry. Data for GFP and mCherry degradation dynamics were collected using an LSRFortessa cell analyzer equipped with a High Throughput Sampler (BD Biosciences), and data for the synthetic toggle switch were collected using a FACSArian flow cytometer (BD Biosciences). For each measurement, cells were fixed in 1% paraformaldehyde (PFA), held at 4° C. for up to 5 days, and then diluted 1:10 in PBS for analysis. At least 5,000 cells were collected for each measurement and FloJo (Treestar) was used for data analysis. […]

[2] = test system: synthetic toggle switch (LacI/TetR); experiment: Protease-driven control of a synthetic toggle switch, Example 2; assay type: cell-based, E. coli
Experimental: Flow Cytometry. Data for GFP and mCherry degradation dynamics were collected using an LSRFortessa cell analyzer equipped with a High Throughput Sampler (BD Biosciences), and data for the synthetic toggle switch were collected using a FACSArian flow cytometer (BD Biosciences). For each measurement, cells were fixed in 1% paraformaldehyde (PFA), held at 4° C. for up to 5 days, and then diluted 1:10 in PBS for analysis. At least 5,000 cells were collected for each measurement and FloJo (Treestar) was used for data analysis.
Synthetic Toggle Switch. The plasmid pKDL071R8, based on pKDL07143, was altered to contain a weakened tetR ribosome binding site (RBS) to enhance toggle bistability in the minimal media conditions used. This plasmid served as the parental strain for all LacI-pdt toggle switch experiments. Pdt variants were fused to lad by overlapping PCR and cloned into pKDL071R8 using SacII and BsrGI. The arabinose inducible PBAD promoter was used to express mf-Lon from a second plasmid. Cells containing the toggle switch and mf-Lon expression plasmids were grown in 200 μl in 96-well round bottom plates at 37° C. in M9 minimal media containing 0.2% glycerol and 0.05% casamino acids, and care was taken to maintain exponential growth throughout the experiment. […]

[3] = test system: mf-Lon; experiment: GFP-pdt degradation platform in E. coli, Example 1 (plasmid-borne aTc-inducible mf-Lon); assay type: cell-based; settings: for Fold Degradation: 0 ng/ml aTc versus 50 ng/ml aTc; for 50 ng/ml aTc (GFP fluorescence, untagged GFP set to 100) / 0 ng/ml aTc (GFP fluorescence, untagged GFP set to 100): GFP-pdt fusion in E. coli, 10 h; for 50 ng/ml aTc (GFP fluorescence, untagged GFP set to 100): mf-Lon induced with 50 ng/ml aTc; for 0 ng/ml aTc (GFP fluorescence, untagged GFP set to 100): no mf-Lon induction
Experimental: Strains, Plasmids and Reagents. The E. coli K-12 derivative strain MG1655Pro (F-, λ-, Sp^r, lacI, tetR) published previously^1,46 was used as the wild-type strain in all cases except for the synthetic toggle experiments where MG1655ΔlacIΔaraBAD was prepared and used as described herein. Unless otherwise noted, bacteria were grown in Luria broth (LB) at 30° with shaking and mf-Lon expression was induced with 50 ng/ml aTc. Antibiotics carbenicillin (100 ug/ml) and kanamycin (30 ug/ml) were added to the media when appropriate. All plasmids and strain mutations were verified by sequencing, and plasmid maps will be deposited in GenBank.
GFP Degradation Platform. The GFP variant GFPmut3b^47 was used for all GFP expression. GFP-pdt variants were expressed from the constitutive PlacIq promoter^48 on a high-copy plasmid containing the ColE1 origin and a kanamycin-resistance cassette. The PLtetO promoter was used to express mf-Lon on a medium-copy plasmid containing the P15A origin and ampicillin-resistance cassette.
Flow Cytometry. GFP expression was measured using a […] (BD BIOSCIENCES) flow cytometer with the following voltage settings: FCS, 340; SCS, 270; FITC (for GFP), 520; mCherry, 615. At least 10,000 cells were collected for each measurement and FloJo was used for data analysis.
Plate Fluorimetry and Optical Density. Fluorescence and optical density measurements were made with a SPECTRAMAX M5 microplate reader (MOLECULAR DEVICES) using excitation and emission wavelengths of 488 nm and 520 nm, respectively, with an emission filter cutoff at 515 nm Optical density was measured at 600 nm (0D600). All measurements were made in 200 μl in 96-well clear bottom plates.
PDT Mutagenesis Screens. Polymerase chain reaction (PCR) primers containing randomized nucleotides were used to mutagenize the indicated pdt codons. Plasmids containing the mutagenized tags fused to gfp were co-transformed with the mf-Lon expression plasmid into MG1655Pro. Transformants were picked into 96-well plates, grown to mid-log phase, diluted 1:20 into media with and without 50 ng/ml aTc and measured by plate reader after 10 h growth.

Substance | 50 ng/ml ATc (GFP fluorescence, untagged GFP set to 100) [1] [%] | 0 ng/ml ATc (GFP fluorescence, untagged GFP set to 100) [1] [%] | toggle switching relative to LacI-pdt#3 [2] | Fold Degradation [3] | 50 ng/ml aTc (GFP fluorescence, untagged GFP set to 100) [3] [%] | 0 ng/ml aTc (GFP fluorescence, untagged GFP set to 100) [3] [%] | GFP-pdt remaining, % of its initial levels after mf-Lon expression [1] [%] | drop in GFP following mf-Lon induction ([3]; from initial (steady-state) levels) [fold] | GFP-pdt levels compared with untagged GFP ([3]; late-log and stationary phase, constitutive expression, no mf-Lon)
pdt#3D: Example 2: aa13-15 APN, aa24-27 RRRV, SEQ ID NO 19 (AANKNEENTNEVAPNMLNAGQANRRRV) | 66 | 104 | – | – | – | – | – | – | –
pdt#3A: Example 2: aa13-15 FKL, aa24-27 RRRV, SEQ ID NO 114 (AANKNEENTNEVFKLMLNAGQANRRRV) | 27 | 115 | provided temporal control over the circuit switch rate | – | – | – | – | – | –
pdt#3E: Example 2: aa13-15 PDG, aa24-27 RRRV, SEQ ID NO 115 (AANKNEENTNEVPDGMLNAGQANRRRV) | 87 | 112 | – | – | – | – | – | – | –
pdt#3B: Example 2: aa13-15 RAI, aa24-27 RRRV, SEQ ID NO 18 (AANKNEENTNEVRAIMLNAGQANRRRV) | 38 | 100 | provided temporal control over the circuit switch rate | – | – | – | – | – | –
pdt#1 (AANKNEENTNEVPTFMLNAGQANRLQL) | 1 | 40 | – | 24.6 | 0.9 | 21.8 | – | – | –
AANKNEENTNEVPTFMLNAGQANYAFA [pdt, reference compound] | 1 | 50 | – | 20.7 | 0.6 | 12.5 | 3 | 21 | markedly lower
pdt#3C: Example 2: aa13-15 AQP, aa24-27 RRRV, SEQ ID NO 22 (AANKNEENTNEVAQPMLNAGQANRRRV) | 48 | 107 | – | – | – | – | – | – | –
